Consider 2 compounds from patent US8765748B2, “Indazolyl, benzimidazolyl, benzotriazolyl substituted indolinone derivatives as kinase inhibitors useful in the treatment of cancer” (University Health Network, priority 2007, dated 2014).

Entries after “also recorded” stand apart in the source; their conditions may differ. Where only a bound is given, the exact number is not on record here.

For one experiment, the target named is T1, FLT-1 (Homo sapiens, UniProt P17948).
T1 construct: purchased Millipore (assay service)
Briefly: Millipore kinase assay, radiolabelled phosphopeptide filter binding, IC50 estimate. It counts as biochemical. The following applies: estimated from inhibition at three compound concentrations; ATP at the Km. The procedure:
(§1) Kinase assays at Millipore were performed using a radiolabelled phosphopeptide filter binding detection system, in duplicate, at each compound concentration. The ATP substrate concentration in the reactions was at the Km for each enzyme.
(§2) To allow for a more direct comparison of compound inhibition, an IC50 value was estimated from the inhibition determined at three compound concentrations. Several assumptions were made to allow this calculation using a 4 parameter non linear curve fit model, including full inhibition set at 100%, no inhibition set to 0%, and a curve fit parameter set at 1. The inflection point was reported as the estimated IC50.

The target of a further experiment is FGFR1. Described as above. It counts as biochemical. The following applies: estimated from inhibition at three compound concentrations; ATP at the Km. The procedure:
as §1, §2

The target in a further experiment is T2, KDR (Homo sapiens, UniProt P35968).
T2 construct: purchased Millipore (assay service)
Described as above. It counts as biochemical. The following applies: estimated from inhibition at three compound concentrations; ATP at the Km. On the procedure: as §1, §2

A further experiment deals with T3, PDGFRβ (Homo sapiens, UniProt P09619).
T3 construct: purchased Millipore (assay service)
The experiment is described as above. It counts as biochemical. The conditions noted are these: estimated from inhibition at three compound concentrations; ATP at the Km. The procedure: as §1, §2

For a further experiment, the system named is HUV-EC-C cells. Put plainly: In Vitro Angiogenesis Assay (tube formation). It counts as cell-based. The following applies: 4 hr incubation, 8,000 cells per well, FIG. 1. On the procedure: HUV-EC-C cells were obtained from the American Type Culture Collection (ATCC, CRL-1730), and were used at early passage for the assay. The in vitro Angiogenesis Assay Kit (Chemicon) was used according to the manufacturer's recommendation. An ice-cold mixture of ECMatrix was transferred into a precooled 96-well plate. After the matrix solution had solidified (>1 hr incubation at 37° C.), 8,000 cells were mixed with the appropriate inhibitor concentration (in 100 microliters EGM-2) and plated into each well. After incubation at 37° C. for 4 hr, tube formation was inspected. Two methods, pattern recognition and branch point counting, were used to quantify the progression of angiogenesis and expressed as a percentage of the control tube count (FIG. 1).

For a further experiment, the target named is T4, Aurora B (Homo sapiens, UniProt Q96GD4).
T4 construct: purchased Invitrogen PV3970
Put plainly: Aurora B Inhibition Assay (Z-Lyte). It counts as biochemical. The following applies: 128 μM ATP, 28 nM Aurora B; read-out: Aurora B IC50 Ranges. The procedure:
Aurora B inhibition was determined using the Z-Lyte assay kit from Invitrogen. The assay was performed using the recommended manufacturer's instructions with 128 μM ATP and 28 nM Aurora B (Invitrogen cat #PV3970). The % inhibition values were determined according to the manufacturer's directions and IC50 values were obtained using a non-linear 4 point logistic curve fit (XLfit4, IDBS)

The target in the next experiment is Abl (Homo sapiens, UniProt P00519). Briefly: Millipore kinase assay, radiolabelled phosphopeptide filter binding, IC50 estimate. It counts as biochemical. Also noted: purchased Millipore (assay service). The conditions noted are these: estimated from inhibition at three compound concentrations; ATP at the Km. On the procedure:
as §1, §2

The target of the next experiment is TRKA (Homo sapiens, UniProt P04629). The experiment is described as above. The arrangement: purchased Millipore (assay service). It counts as biochemical. The following applies: estimated from inhibition at three compound concentrations; ATP at the Km. On the procedure:
as §1, §2

The target in a further experiment is Lyn (Homo sapiens, UniProt P07948). The experiment is described as above. It counts as biochemical. Also noted: purchased Millipore (assay service). The conditions noted are these: estimated from inhibition at three compound concentrations; ATP at the Km. On the procedure: as §1, §2
The target of another experiment is Ret (Homo sapiens, UniProt P07949). The experiment is described as above. It counts as biochemical. The arrangement: purchased Millipore (assay service). The conditions noted are these: estimated from inhibition at three compound concentrations; ATP at the Km. The procedure:
as §1, §2

The target of a further experiment is T5, Aurora A (Homo sapiens, UniProt O14965).
T5 construct: purchased Invitrogen PV3612
T5 sequence (O14965 1-403): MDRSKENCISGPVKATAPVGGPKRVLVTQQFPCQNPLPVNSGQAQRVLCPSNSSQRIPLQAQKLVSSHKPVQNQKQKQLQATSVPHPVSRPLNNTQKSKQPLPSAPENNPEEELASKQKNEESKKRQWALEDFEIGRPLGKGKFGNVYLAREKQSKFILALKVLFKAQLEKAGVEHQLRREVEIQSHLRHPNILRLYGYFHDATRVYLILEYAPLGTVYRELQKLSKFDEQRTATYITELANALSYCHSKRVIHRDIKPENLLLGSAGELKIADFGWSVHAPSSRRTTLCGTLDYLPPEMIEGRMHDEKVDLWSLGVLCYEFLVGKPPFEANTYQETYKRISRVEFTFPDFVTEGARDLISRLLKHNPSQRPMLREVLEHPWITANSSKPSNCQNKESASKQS
Put plainly: Aurora A Inhibition Assay (Z-Lyte). It counts as biochemical. The following applies: 20 μM ATP, 12 nM Aurora A; read-out: Aurora A IC50 Ranges. The procedure:
Aurora A inhibition was determined using the Z-Lyte assay kit from Invitrogen. The assay was performed using the recommended manufacturer's instructions with 20 μM ATP and 12 nM Aurora A (Invitrogen cat #PV3612). The % inhibition values were determined according to the manufacturer's directions and IC50 values were obtained using a non-linear 4 point logistic curve fit (XLfit4, IDBS)

For another experiment, the target named is T6, human PLK4 (Homo sapiens, UniProt O00444).
T6 construct: amino terminal GST fusion of residues 1-391 of human PLK4; made in house; host or cells: E. coli
T6 sequence (O00444 1-391): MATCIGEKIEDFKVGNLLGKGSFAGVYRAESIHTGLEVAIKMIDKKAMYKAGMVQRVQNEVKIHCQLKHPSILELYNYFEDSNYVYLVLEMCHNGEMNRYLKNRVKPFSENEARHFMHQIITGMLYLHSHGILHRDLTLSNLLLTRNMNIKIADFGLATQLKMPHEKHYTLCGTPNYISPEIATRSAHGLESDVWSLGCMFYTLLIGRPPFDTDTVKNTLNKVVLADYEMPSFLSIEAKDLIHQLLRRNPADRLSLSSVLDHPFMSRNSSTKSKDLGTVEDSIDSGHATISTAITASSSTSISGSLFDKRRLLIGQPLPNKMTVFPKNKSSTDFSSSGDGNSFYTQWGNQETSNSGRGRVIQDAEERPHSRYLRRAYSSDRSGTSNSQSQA
Briefly: PLK4 Inhibition Assay (indirect ELISA). It counts as biochemical. The following applies: 15 μM ATP, 4 nM GST-PLK4; read-out: PLK4 IC50 Ranges. Put shortly:
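IC50 values, from 4-point logistic fitting, reflect remaining activity measured by indirect ELISA. Enzyme was GST-PLK4 treated with lambda phosphatase and given a 15-minute pre-incubation with compound before ATP start.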
In general terms: An ELISA detects its analyte on a solid surface through an enzyme-linked reagent.

The target in the next experiment is T7, PLK2 (Homo sapiens, UniProt Q9NYY3).
T7 construct: purchased Invitrogen PV4204
Put plainly: PLK2 Inhibition Assay (Z-Lyte). It counts as biochemical. The conditions noted are these: 10 μM compound; read-out: PLK2 relative inhibition percentage at a dose of 10 μM. On the procedure: PLK2 inhibition was determined using the Z-Lyte assay kit from Invitrogen (cat #PV3802). The assay was performed using the recommended manufacturer's instructions with 60 μM ATP and 133 nM PLK2 (Invitrogen cat #PV4204). The % inhibition values were determined according to the manufacturer's directions and IC50 values were obtained using a non-linear 4 point logistic curve fit (XLfit4, IDBS)

The target in the next experiment is T8, PLK1 (Homo sapiens, UniProt P53350).
T8 construct: purchased Invitrogen PV3501
Put plainly: PLK1 Inhibition Assay (Z-Lyte). It counts as biochemical. The following applies: 10 μM compound; read-out: PLK1 relative inhibition percentage at a dose of 10 μM. The procedure:
PLK1 inhibition was determined using the Z-Lyte assay kit from Invitrogen (cat #PV3802). […] The % inhibition values were determined according to the manufacturer's directions and IC50 values were obtained using a non-linear 4 point logistic curve fit (XLfit4, IDBS)

For experiment [1], the system named is MCF-7 luminal breast cancer cell line. Put plainly: Cell growth inhibition, Sulforhodamine B assay (SRB). It counts as cell-based. The following applies: Homo sapiens, MCF7, 120 h; 5 days culture, SRB; read-out: Cell Line GI50 Range, MCF-7. Put shortly: (§3)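 Cells seeded 24 h before compound addition, then exposed to 10 nM–50 μM final compound in DMEM + 10% FBS for 5 days. Growth measured by TCA fixation, SRB staining and absorbance at 570 nm; % inhibition relative to DMSO-only cells, with GI50 fitted for cytotoxic compounds.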
Background: Sulforhodamine B stains cellular protein and so reports cell mass.

A further experiment relates to A549 lung cancer cells. Described as above. It counts as cell-based. The conditions noted are these: Homo sapiens, A549, 120 h, 5 days culture, read-out: Cell Line GI50 Range, A-549. The procedure, abridged: as §3
Experiment [2] concerns human mammary epithelial primary cells (HMEC). The description is as above. It counts as cell-based. The conditions noted are these: 120 h, 5 days culture, read-out: Cell Line GI50 Range, HMEC. The procedure, abridged:
as §3

The test system of experiment [3] is HCC1954 basal breast cancer cell line. The experiment is described as above. It counts as cell-based. The conditions noted are these: Homo sapiens, HCC1954, 120 h, 5 days culture, read-out: Cell Line GI50 Range, HCC-1954. Put shortly: as §3
For another experiment, the system named is SW620 colon cancer cells. Described as above. The conditions noted are these: Homo sapiens, SW-620, 120 h, 5 days culture, read-out: Cell Line GI50 Range, SW-620. It counts as cell-based. The procedure, abridged:
as §3

In experiment [4] the test system is MDA-MB-468 basal breast cancer cell line. The description is as above. It counts as cell-based. The following applies: Homo sapiens, MDA-MB-468, 120 h; 5 days culture, SRB; read-out: Cell Line GI50 Range, MDA-MB-468. Put shortly:
as §3

T4 sequence (Q96GD4 whole entry): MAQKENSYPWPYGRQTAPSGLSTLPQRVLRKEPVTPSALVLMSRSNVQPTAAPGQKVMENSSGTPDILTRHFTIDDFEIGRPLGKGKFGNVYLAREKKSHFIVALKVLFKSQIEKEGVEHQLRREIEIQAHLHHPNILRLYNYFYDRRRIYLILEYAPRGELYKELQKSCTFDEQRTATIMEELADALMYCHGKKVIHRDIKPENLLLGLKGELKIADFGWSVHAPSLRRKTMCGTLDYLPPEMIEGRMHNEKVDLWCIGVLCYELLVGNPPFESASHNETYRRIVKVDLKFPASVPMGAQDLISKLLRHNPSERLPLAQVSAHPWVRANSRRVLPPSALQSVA
T7 sequence (Q9NYY3 whole entry): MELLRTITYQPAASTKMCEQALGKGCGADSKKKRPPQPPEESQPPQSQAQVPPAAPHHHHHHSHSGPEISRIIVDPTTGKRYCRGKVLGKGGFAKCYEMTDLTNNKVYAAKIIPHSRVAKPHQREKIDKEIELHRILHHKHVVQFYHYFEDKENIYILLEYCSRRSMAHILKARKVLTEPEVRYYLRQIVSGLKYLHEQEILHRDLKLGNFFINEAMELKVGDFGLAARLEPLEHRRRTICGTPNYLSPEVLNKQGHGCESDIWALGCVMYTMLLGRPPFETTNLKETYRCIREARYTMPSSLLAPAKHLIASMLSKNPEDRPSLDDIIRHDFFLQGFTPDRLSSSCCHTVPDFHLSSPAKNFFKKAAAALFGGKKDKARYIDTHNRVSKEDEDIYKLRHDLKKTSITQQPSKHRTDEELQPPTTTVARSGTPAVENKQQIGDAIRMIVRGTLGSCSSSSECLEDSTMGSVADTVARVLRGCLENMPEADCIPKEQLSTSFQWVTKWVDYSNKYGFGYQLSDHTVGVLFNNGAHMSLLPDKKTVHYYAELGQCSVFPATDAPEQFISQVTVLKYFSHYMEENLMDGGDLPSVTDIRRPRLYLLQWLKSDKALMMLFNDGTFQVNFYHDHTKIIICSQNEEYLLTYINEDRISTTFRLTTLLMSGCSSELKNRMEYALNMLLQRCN
Chain of Lyn (P07948 whole entry): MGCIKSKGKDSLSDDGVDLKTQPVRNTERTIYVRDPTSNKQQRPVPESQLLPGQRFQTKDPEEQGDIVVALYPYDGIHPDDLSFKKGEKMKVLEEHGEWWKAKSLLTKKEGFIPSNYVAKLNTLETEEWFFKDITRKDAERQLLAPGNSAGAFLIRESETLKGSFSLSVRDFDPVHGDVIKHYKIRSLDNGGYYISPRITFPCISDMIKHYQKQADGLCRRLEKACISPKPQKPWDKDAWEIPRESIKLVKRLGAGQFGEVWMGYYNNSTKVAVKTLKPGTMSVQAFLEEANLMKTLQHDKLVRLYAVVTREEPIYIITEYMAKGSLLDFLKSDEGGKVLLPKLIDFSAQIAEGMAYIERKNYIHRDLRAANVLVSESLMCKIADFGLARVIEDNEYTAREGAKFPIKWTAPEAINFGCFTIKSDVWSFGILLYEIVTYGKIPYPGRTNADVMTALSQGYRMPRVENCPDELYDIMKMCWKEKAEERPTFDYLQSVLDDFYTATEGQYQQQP
T8 sequence (P53350 whole entry): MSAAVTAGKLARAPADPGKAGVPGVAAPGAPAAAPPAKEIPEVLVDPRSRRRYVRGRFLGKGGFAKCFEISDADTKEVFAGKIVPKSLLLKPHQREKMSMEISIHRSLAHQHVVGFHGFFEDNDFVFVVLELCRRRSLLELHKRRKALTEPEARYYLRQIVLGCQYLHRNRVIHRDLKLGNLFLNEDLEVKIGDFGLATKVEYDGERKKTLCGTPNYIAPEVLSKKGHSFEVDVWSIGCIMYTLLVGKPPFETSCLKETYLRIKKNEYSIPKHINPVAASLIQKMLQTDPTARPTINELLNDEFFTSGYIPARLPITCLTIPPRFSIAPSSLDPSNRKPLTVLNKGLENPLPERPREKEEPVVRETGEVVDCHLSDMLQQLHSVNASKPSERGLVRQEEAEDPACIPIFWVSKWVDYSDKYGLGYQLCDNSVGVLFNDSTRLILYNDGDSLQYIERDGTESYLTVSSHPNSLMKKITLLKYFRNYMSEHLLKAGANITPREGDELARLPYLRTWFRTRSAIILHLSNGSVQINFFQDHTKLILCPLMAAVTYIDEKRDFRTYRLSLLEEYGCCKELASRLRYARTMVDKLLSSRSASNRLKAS
T1 sequence (P17948 27-1338): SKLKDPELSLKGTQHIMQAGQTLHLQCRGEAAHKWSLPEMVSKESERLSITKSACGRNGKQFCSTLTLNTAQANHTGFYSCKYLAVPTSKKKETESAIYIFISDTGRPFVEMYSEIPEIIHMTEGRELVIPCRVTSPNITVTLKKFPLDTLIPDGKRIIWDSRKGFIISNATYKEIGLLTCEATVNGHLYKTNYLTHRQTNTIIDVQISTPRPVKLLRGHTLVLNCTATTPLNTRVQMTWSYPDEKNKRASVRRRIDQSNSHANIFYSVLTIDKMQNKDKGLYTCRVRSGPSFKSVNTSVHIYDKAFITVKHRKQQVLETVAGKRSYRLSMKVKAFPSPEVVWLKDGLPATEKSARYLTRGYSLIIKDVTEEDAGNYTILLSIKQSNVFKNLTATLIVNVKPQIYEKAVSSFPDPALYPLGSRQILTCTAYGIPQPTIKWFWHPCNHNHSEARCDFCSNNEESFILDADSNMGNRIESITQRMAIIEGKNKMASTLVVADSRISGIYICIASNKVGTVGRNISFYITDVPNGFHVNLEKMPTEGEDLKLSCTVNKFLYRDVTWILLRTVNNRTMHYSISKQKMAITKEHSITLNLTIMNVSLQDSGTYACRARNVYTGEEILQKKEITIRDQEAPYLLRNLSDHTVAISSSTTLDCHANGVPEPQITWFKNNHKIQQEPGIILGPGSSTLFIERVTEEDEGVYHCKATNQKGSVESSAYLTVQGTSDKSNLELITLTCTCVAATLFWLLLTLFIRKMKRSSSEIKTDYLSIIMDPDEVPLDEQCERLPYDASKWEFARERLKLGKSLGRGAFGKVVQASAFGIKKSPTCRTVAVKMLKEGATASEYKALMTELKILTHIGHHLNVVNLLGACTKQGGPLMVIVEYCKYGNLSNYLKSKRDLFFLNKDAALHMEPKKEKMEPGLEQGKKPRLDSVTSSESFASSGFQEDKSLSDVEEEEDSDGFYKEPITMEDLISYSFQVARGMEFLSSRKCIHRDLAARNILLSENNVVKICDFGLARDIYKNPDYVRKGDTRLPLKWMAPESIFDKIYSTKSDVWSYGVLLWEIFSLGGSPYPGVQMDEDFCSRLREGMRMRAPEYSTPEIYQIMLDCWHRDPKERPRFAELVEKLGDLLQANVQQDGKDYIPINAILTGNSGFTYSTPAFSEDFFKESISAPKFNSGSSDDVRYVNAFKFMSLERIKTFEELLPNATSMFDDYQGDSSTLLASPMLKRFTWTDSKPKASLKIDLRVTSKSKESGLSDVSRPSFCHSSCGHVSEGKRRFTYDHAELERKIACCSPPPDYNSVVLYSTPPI
T2 sequence (P35968 20-1356): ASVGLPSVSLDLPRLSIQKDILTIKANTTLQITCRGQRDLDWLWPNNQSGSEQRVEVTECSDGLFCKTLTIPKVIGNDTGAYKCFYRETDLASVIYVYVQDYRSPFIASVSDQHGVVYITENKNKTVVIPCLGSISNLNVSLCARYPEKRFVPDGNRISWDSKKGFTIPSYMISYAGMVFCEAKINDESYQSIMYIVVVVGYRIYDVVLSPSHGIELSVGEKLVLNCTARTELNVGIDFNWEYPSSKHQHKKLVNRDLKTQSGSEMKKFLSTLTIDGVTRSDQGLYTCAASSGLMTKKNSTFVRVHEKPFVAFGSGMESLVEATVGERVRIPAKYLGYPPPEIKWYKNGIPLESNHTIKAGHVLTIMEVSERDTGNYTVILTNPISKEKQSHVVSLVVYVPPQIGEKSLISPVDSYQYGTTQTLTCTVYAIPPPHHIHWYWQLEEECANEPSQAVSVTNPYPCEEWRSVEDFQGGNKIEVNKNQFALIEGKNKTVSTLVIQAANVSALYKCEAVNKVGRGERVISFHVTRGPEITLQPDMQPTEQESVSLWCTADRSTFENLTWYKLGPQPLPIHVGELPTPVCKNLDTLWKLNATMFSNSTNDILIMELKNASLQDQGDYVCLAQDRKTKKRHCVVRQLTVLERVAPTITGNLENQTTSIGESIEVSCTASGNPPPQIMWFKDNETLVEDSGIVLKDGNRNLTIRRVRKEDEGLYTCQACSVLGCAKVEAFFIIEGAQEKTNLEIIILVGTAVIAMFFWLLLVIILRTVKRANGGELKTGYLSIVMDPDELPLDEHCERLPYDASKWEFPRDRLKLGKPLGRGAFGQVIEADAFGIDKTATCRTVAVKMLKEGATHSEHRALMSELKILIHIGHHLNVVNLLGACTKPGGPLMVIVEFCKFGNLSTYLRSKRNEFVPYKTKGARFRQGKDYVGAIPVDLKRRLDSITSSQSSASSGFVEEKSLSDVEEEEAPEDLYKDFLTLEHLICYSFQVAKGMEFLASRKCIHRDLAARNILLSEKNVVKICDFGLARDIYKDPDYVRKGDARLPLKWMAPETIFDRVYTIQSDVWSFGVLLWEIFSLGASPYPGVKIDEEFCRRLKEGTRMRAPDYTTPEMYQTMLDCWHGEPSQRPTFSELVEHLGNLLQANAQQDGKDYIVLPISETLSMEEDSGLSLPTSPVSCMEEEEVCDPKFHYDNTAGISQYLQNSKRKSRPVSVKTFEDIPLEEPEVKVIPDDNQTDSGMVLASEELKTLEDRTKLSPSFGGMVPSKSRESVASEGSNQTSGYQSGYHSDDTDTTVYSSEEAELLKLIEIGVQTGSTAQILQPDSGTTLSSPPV

Take `O=C1Nc2ccccc2/C1=C\c1ccc2c(/C=C/c3ccncc3)n[nH]c2c1` [Example A57, (E)-3-((3-((E)-2-(pyridin-4-yl)vinyl)-1H-indazol-6-yl)methylene)-indolin-2-one]: the IC50 at FLT-1, on FGFR1, on KDR, at PDGFRβ, on Aurora B and at Abl was under 5 µM throughout. The IC50 at TRKA, at Lyn, on Ret, on Aurora A and on human PLK4 was under 5 µM throughout. Also, the “Inhibition of HUV-EC-C Cell Tube Formation (percentage of the control tube count)” value in the experiment on HUV-EC-C cells is recorded as “anti-agiogenic effects at micromolar concentrations; also recorded: inhibition of HUV-EC-C Cell Tube Formation”. Besides, the inhibition (commonly the drop in the measured response relative to a control, in per cent) at 10 µM on PLK2 is over 50%.

For the compound `O=C1Nc2ccc(Cl)cc2/C1=C\c1ccc2c(/C=C/c3ccncc3)n[nH]c2c1` [Example A84, (E)-5-chloro-3-((3-((E)-2-(pyridin-4-yl)vinyl)-1H-indazol-6-yl)methylene)indolin-2-one], the IC50 on Aurora B, on Aurora A and on human PLK4 was under 5 µM each time. The inhibition at 10 µM on PLK2 and on PLK1 was under 50% throughout. The GI50 (as a rule, the concentration at which growth is held to half of that of the control) in experiment [1] is under 5 µM; in the experiment on A549 lung cancer cells, over 50 µM; in [2], over 50 µM; in [3] it was 5 to 20 µM; with SW620 colon cancer cells, under 5 µM; in experiment [4], under 5 µM.
